Measured values taken from US12037327B2, “Compounds and methods targeting GPER for treatment of diseases associated with calcium” (Saint Louis University, priority 2018, dated 2024).

Columns and labels:
Format in all cases: cell-based
GPER [1] = biological target: T1, GPER (Homo sapiens, UniProt Q99527); assay: calcium mobilization after siRNA knock down of GPER in HL-60 cells; details: HL-60 cells not treated with siRNA; 1 μM
T1 construct: siRNA was used to knock-down expression of GPER; endogenous in cells; host or cells: HL-60 (human myelocytic leukemia) cells

GPER [2] = biological target: T1, GPER; assay: calcium mobilization assay, agonists tested against EC50 of GPER antagonist G-36; details: for change in calcium efflux in response to G-36: agonist at 100 nM against EC50 of G-36, normalized
Method: Each signal was normalized to the baseline signaling of G-36 and the maximum signal achieved by the specific agonist. Results are shown at 100 nM.
Calcium mobilization signal was assessed with the use of 0.1% pluronic acid and 5 μM Indo-1AM, a ratiometric dye. The EC50 values were determined based upon triplicate runs on triplicate plates. […] Cyclic AMP formation through the Gi/o-pathway was monitored utilizing a homogenous time-resolved fluorescence assay purchased from CisBio. A triplicate was performed and an EC50 value was calculated. […] The EC50 values were determined based upon triplicate runs on a triplicate plates. To confirm that calcium efflux originated from activation of the G protein-coupled estrogen receptor (GPER), a known selective antagonist, G-36 was used to antagonize the signal. […] Additional data can be found in FIG. 9. […] Without wishing to be bound by any theory, it is believed that within the new functionalization of the scaffold the lone pair on the oxygen of furfuran ring system and the nitrogen on pyridinyl ring system work to activate the receptor. […] Based upon neurite outgrowth studies and without wishing to be bound by any theory, it is believed that the compounds may aid in the elongation and connectivity of neurons. This has implication in a variety of neurodegenerative diseases, such as Alzheimer's disease and Parkinson's disease, but also psychiatric illnesses including Austism and Schizophrenia.

[3] = biological target: T2, G protein-coupled estrogen receptor (GPER) (Homo sapiens, UniProt Q99527); assay: calcium mobilization assay in HL-60 cells (Indo-1AM); details: triplicate runs on triplicate plates, read-out: EC50 (Ca^2+)
T2 construct: siRNA was used to knock-down expression of GPER; endogenous in cells; host or cells: HL-60 (human myelocytic leukemia) cells
Method: For the calcium mobilization studies, Human Myelocytic Leukemia (HL-60) cells were grown in phenol red free media containing 10% activated fetal bovine serum (FBS), 1% Pen-Strep, and 1% Glutamax. Cells were grown to no more than 1×10^6 cells/mL to prevent differentiation before being split. Prior to assay cells were transferred to phenol red free media containing charcoal-stripped FBS. On the day of the assay cells were centrifuged down at 16.4 G for 5 minutes and washed with 50:1 HBSS/HEPES. Cells were resuspended at 1×10^7 cells/mL in 50:1 HBSS/HEPES. To the resuspended cells, […] pluronic acid and 5 uM of fluorescent calcium indicator, Indo-1AM, were added. The dye solution was incubated for 0.5 hrs at room temperature with rocking. After 30 minutes cells were spun down, and resuspended in 50:1 HBSS/HEPES. Cells were placed on ice for at least 5 minutes and then resuspended in 8.5 mL of 50:1 HBSS/HEPES for agonism assays. For agonism assays 160 μL of cell suspension were added to a 96-well plate and were incubated at […] for 20 minutes in a FlexStation® 3 plate reader (Molecular Devices). Inside the plate reader, 40 μL of agonist were added to each well and excited with 350 nm and read at emissions of 405 nm and 490 nm.
Calcium mobilization signal was assessed with the use of 0.1% pluronic acid and 5 μM Indo-1AM, a ratiometric dye. The EC50 values were determined based upon triplicate runs on triplicate plates. […] Cyclic AMP formation through the Gi/o-pathway was monitored utilizing a homogenous time-resolved fluorescence assay purchased from CisBio. A triplicate was performed and an EC50 value was calculated. […] The EC50 values were determined based upon triplicate runs on a triplicate plates.

[4] = tested on: E18 embryonic rat cortical neurons; assay: neurite outgrowth in E18 embryonic rat neurons

T1 sequence (Q99527 whole entry): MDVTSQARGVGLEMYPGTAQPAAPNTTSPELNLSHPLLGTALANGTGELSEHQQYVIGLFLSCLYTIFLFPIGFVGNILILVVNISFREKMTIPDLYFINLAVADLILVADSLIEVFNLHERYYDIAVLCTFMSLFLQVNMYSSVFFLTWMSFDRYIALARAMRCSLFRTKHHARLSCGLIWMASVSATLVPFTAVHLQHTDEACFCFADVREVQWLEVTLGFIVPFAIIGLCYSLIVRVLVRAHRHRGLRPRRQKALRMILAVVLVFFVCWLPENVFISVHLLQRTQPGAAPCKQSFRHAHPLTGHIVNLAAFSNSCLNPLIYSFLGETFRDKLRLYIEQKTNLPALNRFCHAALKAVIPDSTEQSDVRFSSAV
T2 sequence (Q99527 whole entry): as above

Row | Structure (SMILES) | calcium compared to the vehicle control, no siRNA (GPER [1]) | change in calcium efflux in response to G-36 (GPER [2]) | EC50 [3] | calcium signal when antagonized with G-36 (GPER [2]; concentration not given) | neurite outgrowth with GPER antagonist G-15 ([4]; 100 nM agonist plus 100 nM G-15) | neurite outgrowth ([4]; 100 nM agonist, 72 hours, compared to vehicle control)
1 | CC(C)c1ccc(NCc2ccc(CO)o2)c(C2CCCCC2)c1 [Compound 1] | no statically significant difference | significant increase | 1300 ± 322 nM |  |  | 
2 | CC(C)c1ccc(NCc2ccoc2)c(C2CCCCC2)c1 [Compound 2] | no statically significant difference | significant increase | 699 ± 85 nM | reduced to basal response | reduction in signal | statistically significant increase
